{
  "source": "ChEMBL document CHEMBL3046027",
  "about": "“In vitro and in vivo antifungal activity of synthetic pure isothiocyanates against Sclerotinia sclerotiorum” (Pest Manag Sci, 2011)",
  "key": {"Sclerotinia sclerotiorum [1]": {"system": "Sclerotinia sclerotiorum", "assay": "Fungistatic activity in Sclerotinia sclerotiorum assessed as sclerotial viability measured at 20 degC after 5 days", "format": "functional, organism-based", "conditions": "120 h"}, "Sclerotinia sclerotiorum [2]": {"system": "Sclerotinia sclerotiorum", "assay": "Antifungal activity against Sclerotinia sclerotiorum assessed as inhibition of germination in volatile phase at 251 umol/l measured at 20 degC after 5 days", "format": "functional", "conditions": "120 h"}, "Sclerotinia sclerotiorum [3]": {"system": "Sclerotinia sclerotiorum", "assay": "In vivo antifungal Sclerotinia sclerotiorum in Pepper (Capsicum annuum L. cv. Sera Demre) assessed as inhibition of mycelial growth in volatile phase at 168 umol/L measured after 10 to 14 weeks", "format": "functional"}, "Sclerotinia sclerotiorum [4]": {"system": "Sclerotinia sclerotiorum", "assay": "In vivo antifungal Sclerotinia sclerotiorum in Pepper (Capsicum annuum L. cv. Sera Demre) assessed as inhibition of mycelial growth in volatile phase at 84 umol/L measured after 10 to 14 weeks", "format": "functional"}, "Sclerotinia sclerotiorum [5]": {"system": "Sclerotinia sclerotiorum", "assay": "Fungistatic activity in Sclerotinia sclerotiorum assessed as inhibition of carpogenic germination in volatile phase at 84 umol/l measured at 20 degC after 5 days relative to control", "format": "functional", "conditions": "AT84, 120 h"}, "Sclerotinia sclerotiorum [6]": {"system": "Sclerotinia sclerotiorum", "assay": "Antifungal activity against Sclerotinia sclerotiorum assessed as inhibition of mycelial growth in contact phase at 2508 umol/l measured at 20 degC after 5 days", "format": "functional", "conditions": "120 h, read-out: GI"}, "Sclerotinia sclerotiorum [7]": {"system": "Sclerotinia sclerotiorum", "assay": "Antifungal activity against Sclerotinia sclerotiorum assessed as inhibition of mycelial growth in contact phase at 836 umol/l measured at 20 degC after 5 days", "format": "functional", "conditions": "120 h, read-out: GI"}, "Sclerotinia sclerotiorum [8]": {"system": "Sclerotinia sclerotiorum", "assay": "Antifungal activity against Sclerotinia sclerotiorum assessed as inhibition of mycelial growth in volatile phase at 42 umol/l measured at 20 degC after 5 days", "format": "functional", "conditions": "120 h, read-out: GI"}, "Sclerotinia sclerotiorum [9]": {"system": "Sclerotinia sclerotiorum", "assay": "Antifungal activity against Sclerotinia sclerotiorum assessed as inhibition of mycelial growth in contact phase at 1672 umol/l measured at 20 degC after 5 days", "format": "functional", "conditions": "120 h, read-out: GI"}, "Sclerotinia sclerotiorum [10]": {"system": "Sclerotinia sclerotiorum", "assay": "Fungistatic activity in Sclerotinia sclerotiorum assessed as viability in volatile phase at 418 umol/l measured at 20 degC after 5 days relative to control", "format": "functional", "conditions": "120 h, read-out: GI"}, "Sclerotinia sclerotiorum [11]": {"system": "Sclerotinia sclerotiorum", "assay": "Antifungal activity against Sclerotinia sclerotiorum assessed as inhibition of mycelial growth in volatile phase at 585 umol/l measured at 20 degC after 5 days", "format": "functional", "conditions": "120 h, read-out: GI"}, "Sclerotinia sclerotiorum [12]": {"system": "Sclerotinia sclerotiorum", "assay": "Antifungal activity against Sclerotinia sclerotiorum assessed as inhibition of mycelial growth in volatile phase at 836 umol/l measured at 20 degC after 5 days", "format": "functional", "conditions": "120 h, read-out: GI"}, "Sclerotinia sclerotiorum [13]": {"system": "Sclerotinia sclerotiorum", "assay": "Antifungal activity against Sclerotinia sclerotiorum assessed as inhibition of mycelial growth in contact phase at 585 umol/l measured at 20 degC after 5 days", "format": "functional", "conditions": "120 h, read-out: GI"}, "Sclerotinia sclerotiorum [14]": {"system": "Sclerotinia sclerotiorum", "assay": "Antifungal activity against Sclerotinia sclerotiorum assessed as inhibition of mycelial growth in contact phase at 752 umol/l measured at 20 degC after 5 days", "format": "functional", "conditions": "120 h, read-out: GI"}, "Sclerotinia sclerotiorum [15]": {"system": "Sclerotinia sclerotiorum", "assay": "Fungistatic activity in Sclerotinia sclerotiorum assessed as inhibition of carpogenic germination in volatile phase at 836 umol/l measured at 20 degC after 5 days relative to control", "format": "functional", "conditions": "120 h"}, "Sclerotinia sclerotiorum [16]": {"system": "Sclerotinia sclerotiorum", "assay": "Fungistatic activity in Sclerotinia sclerotiorum assessed as inhibition of carpogenic germination in volatile phase at 42 umol/l measured at 20 degC after 5 days relative to control", "format": "functional", "conditions": "120 h"}, "Sclerotinia sclerotiorum [17]": {"system": "Sclerotinia sclerotiorum", "assay": "Fungistatic activity in Sclerotinia sclerotiorum assessed as inhibition of mycelial growth in volatile phase measured at 20 degC after 5 days", "format": "functional, organism-based", "conditions": "120 h"}, "Sclerotinia sclerotiorum [18]": {"system": "Sclerotinia sclerotiorum", "assay": "Antifungal activity against Sclerotinia sclerotiorum assessed as inhibition of germination in volatile phase at 418 umol/l measured at 20 degC after 5 days", "format": "functional", "conditions": "120 h"}, "Sclerotinia sclerotiorum [19]": {"system": "Sclerotinia sclerotiorum", "assay": "Antifungal activity against Sclerotinia sclerotiorum assessed as inhibition of germination in volatile phase at 84 umol/l measured at 20 degC after 5 days", "format": "functional", "conditions": "AT84, 120 h"}, "Sclerotinia sclerotiorum [20]": {"system": "Sclerotinia sclerotiorum", "assay": "Antifungal activity against Sclerotinia sclerotiorum assessed as inhibition of mycelial growth in volatile phase at 84 umol/l measured at 20 degC after 5 days", "format": "functional", "conditions": "120 h, read-out: GI"}, "Sclerotinia sclerotiorum [21]": {"system": "Sclerotinia sclerotiorum", "assay": "Fungistatic activity in Sclerotinia sclerotiorum assessed as inhibition of mycelial growth in contact phase at 1672 umol/l measured at 20 degC after 5 days relative to control", "format": "functional", "conditions": "120 h, read-out: GI"}, "Sclerotinia sclerotiorum [22]": {"system": "Sclerotinia sclerotiorum", "assay": "Antifungal activity against Sclerotinia sclerotiorum assessed as inhibition of mycelial growth in volatile phase at 418 umol/l measured at 20 degC after 5 days", "format": "functional", "conditions": "120 h, read-out: GI"}, "Sclerotinia sclerotiorum [23]": {"system": "Sclerotinia sclerotiorum", "assay": "Antifungal activity against Sclerotinia sclerotiorum assessed as inhibition of germination in volatile phase at 42 umol/l measured at 20 degC after 5 days", "format": "functional", "conditions": "120 h"}, "Sclerotinia sclerotiorum [24]": {"system": "Sclerotinia sclerotiorum", "assay": "Fungitoxic activity in Sclerotinia sclerotiorum assessed as inhibition of mycelial growth in contact phase at 2508 umol/l measured at 20 degC after 5 days relative to control", "format": "functional", "conditions": "120 h"}, "Sclerotinia sclerotiorum [25]": {"system": "Sclerotinia sclerotiorum", "assay": "Fungistatic activity in Sclerotinia sclerotiorum assessed as inhibition of mycelial growth in contact phase measured at 20 degC after 5 days", "format": "functional, organism-based", "conditions": "120 h"}, "Sclerotinia sclerotiorum [26]": {"system": "Sclerotinia sclerotiorum", "assay": "Antifungal activity against Sclerotinia sclerotiorum assessed as inhibition of germination in volatile phase at 836 umol/l measured at 20 degC after 5 days", "format": "functional", "conditions": "120 h"}, "Sclerotinia sclerotiorum [27]": {"system": "Sclerotinia sclerotiorum", "assay": "Fungistatic activity in Sclerotinia sclerotiorum assessed as inhibition of mycelial growth in volatile phase at 836 umol/l measured at 20 degC after 5 days relative to control", "format": "functional", "conditions": "120 h, read-out: GI"}, "Sclerotinia sclerotiorum [28]": {"system": "Sclerotinia sclerotiorum", "assay": "Fungistatic activity in Sclerotinia sclerotiorum assessed as inhibition of carpogenic germination in volatile phase at 418 umol/l measured at 20 degC after 5 days relative to control", "format": "functional", "conditions": "120 h"}},
  "data": [
    {"smiles": "S=C=Nc1ccccc1", "note": "[PHENYLISOTHIOCYANATE]", "values": [
      {"measurement": "EC50", "setting": "Sclerotinia sclerotiorum [1]", "value": 192, "unit": "µM"},
      {"measurement": "inhibition at 251 µM", "setting": "Sclerotinia sclerotiorum [2]", "value": 46.7, "unit": "%"},
      {"measurement": "inhibition in vivo at 168 µM", "setting": "Sclerotinia sclerotiorum [3]", "value": 68.3, "unit": "%"},
      {"measurement": "inhibition in vivo at 84 µM", "setting": "Sclerotinia sclerotiorum [4]", "value": 61.7, "unit": "%"},
      {"measurement": "inhibition at 84 µM", "setting": "Sclerotinia sclerotiorum [5]", "value": 52.5, "unit": "%"},
      {"measurement": "inhibition of growth at 2508 µM", "setting": "Sclerotinia sclerotiorum [6]", "value": 100, "unit": "%"},
      {"measurement": "inhibition of growth at 836 µM", "setting": "Sclerotinia sclerotiorum [7]", "value": 65.5, "unit": "%"},
      {"measurement": "inhibition of growth at 42 µM", "setting": "Sclerotinia sclerotiorum [8]", "value": 20.8, "unit": "%"},
      {"measurement": "inhibition of growth at 1672 µM", "setting": "Sclerotinia sclerotiorum [9]", "value": 100, "unit": "%"},
      {"measurement": "inhibition of growth at 418 µM", "setting": "Sclerotinia sclerotiorum [10]", "value": 100, "unit": "%"},
      {"measurement": "inhibition of growth at 585 µM", "setting": "Sclerotinia sclerotiorum [11]", "value": 74.2, "unit": "%"},
      {"measurement": "inhibition of growth at 836 µM", "setting": "Sclerotinia sclerotiorum [12]", "value": 100, "unit": "%"},
      {"measurement": "inhibition of growth at 585 µM", "setting": "Sclerotinia sclerotiorum [13]", "value": 5, "unit": "%"},
      {"measurement": "inhibition of growth at 752 µM", "setting": "Sclerotinia sclerotiorum [14]", "value": 23.7, "unit": "%"},
      {"measurement": "inhibition at 836 µM", "setting": "Sclerotinia sclerotiorum [15]", "value": 85, "unit": "%"},
      {"measurement": "inhibition at 42 µM", "setting": "Sclerotinia sclerotiorum [16]", "value": 12.5, "unit": "%"},
      {"measurement": "EC50", "setting": "Sclerotinia sclerotiorum [17]", "value": 134, "unit": "µM"},
      {"measurement": "inhibition at 418 µM", "setting": "Sclerotinia sclerotiorum [18]", "value": 100, "unit": "%"},
      {"measurement": "inhibition at 84 µM", "setting": "Sclerotinia sclerotiorum [19]", "value": 13.3, "unit": "%"},
      {"measurement": "inhibition of growth at 84 µM", "setting": "Sclerotinia sclerotiorum [20]", "value": 42.8, "unit": "%"},
      {"measurement": "inhibition of growth at 1672 µM", "setting": "Sclerotinia sclerotiorum [21]", "value": 100, "unit": "%"},
      {"measurement": "inhibition of growth at 418 µM", "setting": "Sclerotinia sclerotiorum [22]", "value": 70, "unit": "%"},
      {"measurement": "inhibition at 42 µM", "setting": "Sclerotinia sclerotiorum [23]", "value": 6.7, "unit": "%"},
      {"measurement": "inhibition at 2508 µM", "setting": "Sclerotinia sclerotiorum [24]", "value": 100, "unit": "%"},
      {"measurement": "EC50", "setting": "Sclerotinia sclerotiorum [25]", "value": 802, "unit": "µM"},
      {"measurement": "inhibition at 836 µM", "setting": "Sclerotinia sclerotiorum [26]", "value": 100, "unit": "%"},
      {"measurement": "inhibition of growth at 836 µM", "setting": "Sclerotinia sclerotiorum [27]", "value": 100, "unit": "%"},
      {"measurement": "inhibition at 418 µM", "setting": "Sclerotinia sclerotiorum [28]", "value": 52.5, "unit": "%"}
    ]}
  ]
}
